pIC50: −log10 of the molar value.
Legend:
[1] = target: T1, IGF1 receptor (Homo sapiens, UniProt P08069); assay: ELISA-based assay of IGF1 receptor autophosphorylation inhibition in cells; format: cell-based; conditions: IGF1R phosphorylation inhibition in MCF7 cells
T1 construct: MCF7 human breast cancer cells expressing IGF1 receptor; endogenous in cells; host or cells: MCF7 human breast cancer cells
Description: In another embodiment, compounds that interact with the IGF1R kinase domain are tested in a cell-based assay system. In accordance with this embodiment, cells expressing a full-length IGF1 receptor or a fragment thereof containing the IGF1R kinase domain, are contacted with a candidate or a control compound and the ability of the compound to block tyrosine kinase activity of IGF1R within a cell is determined. This assay may be used to screen a single compound or a large library of candidate compounds. Typically, the cells or cell lines are of mammalian origin and they can express the IGF1 receptor, or functional IGF1R kinase domain fragment, endogenously or be genetically engineered to express the IGF1R, or functional fragment thereof. The ability of the candidate compound to inhibit IGF1R kinase activity can be determined by methods known to those skilled in the art. For example, the inhibition can be determined by ELISA-type assay or Western blot analysis with cell lysates or immunoprecipitated IGF1R receptor using various anti-IGF1R and anti-phosphotyrosine antibodies.
In general, cells expressing IGF1R are treated with modulators (i.e., inhibitors or activators) of IGF1R kinase activity and cell lysates are produced from these treated cells. IGF1Rs are isolated from the lysate by immunoprecipitation and analyzed for phosphotyrosine content. Alternatively, or in addition, cellular protein substrates phosphorylated by IGFR may be immunoprecipitated from the lysates and their degree of tyrosine phosphorylation determined.
MCF7 human breast cancer cells expressing IGF1 receptor or an engineered […] fibroblast cell line NIH 3T3 overexpressing full-length IGF1R are an exemplary cellular models in which to perform such assays. Such cells may be maintained in DMEM medium supplemented with 10% fetal bovine serum (FBS), 4% L-glutamine, 1% antibiotic solution (penicillin-Streptomycin) in a humidified atmosphere of 95% air and 5% CO2 at 37° C. Confluent cells in T175 cell culture flasks are incubated overnight with serum-free DMEM medium. After the serum starvation step, the cells are detached and split into a standard 96-well cell culture plate (one T175 flask per plate, 30 μl of cell suspension per plate well). Tested inhibitors from their 10 mM stock solutions in DMSO are subsequently added at various concentrations in serum-free DMEM medium for 1 hour incubation at 37° C. in CO2-incubator; total DMSO concentration in both treated and control wells is adjusted to 1%. Cells are then stimulated for 10 minutes with 100 nM IGF-1 added in 30 μl DMEM. After treatment, cells are lysed by addition of 30 μl of 4× lysis buffer (phosphate-buffered saline (PBS), 2% Triton-X100, 1 mM phenylmethylsulphonyl fluoride (PMSF) and 8 mM activated orthovanadate), mixing and incubation for 15 minute at room temperature. To prepare assay plates, 96-well ELISA Plates (Pierce Chemical, Reacti-bind plates) were coated by goat-anti-rabbit Fc antiserum by adding 0.25 μg antiserum per well in 0.2M sodium bicarbonate buffer per well and incubating overnight at 4° C. After incubation, the plate is washed three times by PBS with 0.02% Tween-20, supplied with 25 ng/50 μl per well of anti-IGF1R antibody (C-20, Santa Cruz Biotechnology) and incubated for several hours to overnight. Prior to the addition of the prepared cellular lysates, the antibody solution is aspirated, wells washed with PBS and supplied with 25 μl per well of Starting Block buffer (Pierce Chemical).
To measure tyrosine phosphorylation of the beta-subunits of the IGF1R, 25-50 μl of the lysates are transferred from the stimulation plate to the wells of the prepared assay plate and incubated overnight at 4° C. The wells are washed with PBS with 0.02% Tween-20, incubated with 50 μl of 1:3000 dilution of anti-phosphotyrosine 4G10-HRP antibody conjugate (Upstate Biotechnology) for 2 hours at room temperature and washed again. […]

[2] = tested on: Karpas-299; assay: Cell proliferation inhibition, Cell Titer-Glo, Karpas-299; format: cell-based; conditions: Homo sapiens; cell proliferation assay, Karpas-299 cells
Method in brief: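 Karpas 299 cells were seeded into white, clear-bottomed 384-well culture plates at 2500-5000 cells per well and exposed to serial dilutions of test compounds for about 3 days. Viable cell numbers were then measured with the Cell Titer-Glo Luminescent Cell Viability Assay (Promega), which detects total ATP, and IC50 values for proliferation inhibition were derived.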

[3] = target: T2, IGF1R tyrosine kinase (Homo sapiens, UniProt P08069); assay: IGF1R tyrosine kinase assay (Kinase-Glo ATP depletion or PT66/PT100 AlphaScreen); conditions: biochemical tyrosine kinase assay
T2 construct: 6×His- or GST-tagged kinase domain fragments of the corresponding RTKs expressed in baculovirus system; host or cells: baculovirus system
T2 sequence (P08069 999-1274 limits assumed): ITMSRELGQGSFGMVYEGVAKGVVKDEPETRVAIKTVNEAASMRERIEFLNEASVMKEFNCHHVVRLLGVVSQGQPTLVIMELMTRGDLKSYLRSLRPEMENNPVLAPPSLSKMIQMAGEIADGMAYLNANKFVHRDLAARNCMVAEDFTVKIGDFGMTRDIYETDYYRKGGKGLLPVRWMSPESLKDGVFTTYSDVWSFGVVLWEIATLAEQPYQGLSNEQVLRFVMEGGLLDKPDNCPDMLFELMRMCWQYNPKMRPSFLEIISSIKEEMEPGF
Method in brief: (§1)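 Luminescence of remaining ATP (Kinase-Glo) or anti-phosphotyrosine AlphaScreen proximity signal served as read-out. Reactions held purified tagged kinase domain, poly(Glu-Tyr) substrate and 10 μM ATP at pH 7.5. IC50 values came from non-linear regression fits.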

[4] = target: T3, InsR (Homo sapiens, UniProt P06213); assay: Tyrosine kinase assay (Kinase-Glo or AlphaScreen), InsR; conditions: biochemical tyrosine kinase assay
T3 construct: 6×His- or GST-tagged kinase domain fragments of the corresponding RTKs expressed in baculovirus system; host or cells: baculovirus system
T3 sequence (P06213 1023-1298 limits assumed, species assumed): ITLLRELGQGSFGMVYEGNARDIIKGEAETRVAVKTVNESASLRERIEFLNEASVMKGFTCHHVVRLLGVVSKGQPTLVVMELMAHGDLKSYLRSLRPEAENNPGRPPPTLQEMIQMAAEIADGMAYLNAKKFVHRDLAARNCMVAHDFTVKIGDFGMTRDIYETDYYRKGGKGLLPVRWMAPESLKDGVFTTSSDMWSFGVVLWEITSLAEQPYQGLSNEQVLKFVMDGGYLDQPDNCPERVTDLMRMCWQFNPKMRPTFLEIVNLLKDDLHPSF
Method in brief: as §1

[5] = target: T4, Alk (Homo sapiens, UniProt Q9UM73); assay: Tyrosine kinase assay (Kinase-Glo or AlphaScreen), Alk; conditions: biochemical tyrosine kinase assay
T4 construct: 6×His- or GST-tagged kinase domain fragments of the corresponding RTKs expressed in baculovirus system; host or cells: baculovirus system
T4 sequence (Q9UM73 1116-1392 limits assumed, species assumed): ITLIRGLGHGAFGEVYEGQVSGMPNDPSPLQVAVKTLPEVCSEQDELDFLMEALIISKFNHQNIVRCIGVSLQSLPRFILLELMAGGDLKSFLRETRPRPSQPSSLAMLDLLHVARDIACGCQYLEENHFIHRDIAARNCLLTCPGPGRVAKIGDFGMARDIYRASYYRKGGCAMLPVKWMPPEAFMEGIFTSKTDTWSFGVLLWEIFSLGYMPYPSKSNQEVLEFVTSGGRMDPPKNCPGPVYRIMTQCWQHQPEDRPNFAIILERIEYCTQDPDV
Method in brief: as §1

[6] = tested on: Ba/F3; assay: Cell proliferation inhibition, Cell Titer-Glo, Ba/F3; format: cell-based; conditions: Mus musculus, BaF3; cell proliferation assay, Ba/F3 cells
Method in brief: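 Ba/F3 cells were seeded at 2500-5000 cells per well in white, clear-bottomed 384-well culture plates and exposed to serial dilutions of test compounds for 3 days. Cell Titer-Glo Luminescent Cell Viability Assay (Promega) reagent, which measures total ATP as an indicator of metabolic activity, was added. Luminescence was read on a multiwell plate reader to derive IC50 values for inhibition of proliferation.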

[7] = tested on: K562; assay: Cell proliferation inhibition, Cell Titer-Glo, K562; format: cell-based; conditions: Homo sapiens; cell proliferation assay, K562 cells
Method in brief: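 K562 cells were seeded at 2500-5000 cells per well in white, clear-bottomed 384-well culture plates and treated with dilutions of test compounds for typically 3 days. Viable cells were quantified with the Cell Titer-Glo Luminescent Cell Viability Assay (Promega), which measures total ATP, read on a luminescence plate reader to derive IC50 values for proliferation inhibition.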

[8] = target: T5, Jak2 (Homo sapiens, UniProt O60674); assay: Tyrosine kinase assay (Kinase-Glo or AlphaScreen), Jak2; conditions: biochemical tyrosine kinase assay
T5 construct: 6×His- or GST-tagged kinase domain fragments of the corresponding RTKs expressed in baculovirus system; host or cells: baculovirus system
T5 sequence (O60674 849-1124 limits assumed, species assumed): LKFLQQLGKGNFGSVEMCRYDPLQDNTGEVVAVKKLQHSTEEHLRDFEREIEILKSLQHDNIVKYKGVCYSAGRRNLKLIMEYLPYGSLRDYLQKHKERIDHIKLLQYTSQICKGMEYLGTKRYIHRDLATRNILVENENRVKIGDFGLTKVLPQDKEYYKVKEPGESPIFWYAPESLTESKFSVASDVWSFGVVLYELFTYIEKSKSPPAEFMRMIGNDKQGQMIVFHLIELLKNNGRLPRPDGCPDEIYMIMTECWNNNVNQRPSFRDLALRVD
Method in brief: as §1

[9] = tested on: H929 (multiple myeloma); assay: Cell proliferation inhibition, Cell Titer-Glo, H929; format: cell-based; conditions: Homo sapiens, NCI-H929; cell proliferation assay, H929 cells
Description: IGF1R and other tyrosine kinase inhibitors can inhibit the proliferation of certain cancer cell lines indicating their possible therapeutic utility for treating the corresponding cancer types. Cancer cell lines of interest and control normal lines, including CHO, HEK293, BA/F3, MM1, H929, COLO205, PC3, DU145, MCF7, Panc1, ACHN, Hep G2, H460, K562, TT, U87-G, CAOV-3, SK-MEL5, Karpas 299, are plated in white, clear-bottomed 384-well cell culture plates at 2500-5000 cells per well and supplied with dilutions of tested compounds After a desired period of time (typically 3 days), the number of viable cells is quantitated by using Cell Titer-Glo Luminescent Cell Viability Assay (Promega), a cell proliferation assay system based on detection of total amount of ATP present as a measure of cell metabolic activity. The plated cells are mixed with the Cell Titer-Glo developing reagent and counted in a luminescence multiwell plate reader according to the standard manufacturer's protocol to generate IC50 curves for cell proliferation inhibition.
IGF1R and other tyrosine kinase inhibitors can inhibit the proliferation of certain cancer cell lines indicating their possible therapeutic utility for treating the corresponding cancer types. Cancer cell lines of interest and control normal lines, including CHO, HEK293, BA/F3, COLO205, PC3, DU145, MCF7, Panc1, ACHN, Hep G2, H460, K562, TT, U87-MG, CAOV-3, SK-MEL5, Karpas 299 and human multiple myeloma cell lines H929, MM1s, MM1r, UTMC2, CPM2, KMS11, My5, KMS12PE, My7, JJN3, KMS18, U266, SKMM2, RPMI-8226 are plated in white, clear-bottomed 384-well cell culture plates at 2500-5000 cells per well and supplied with dilutions of tested compounds After a desired period of time (typically 3 days), the number of viable cells is quantitated by using Cell Titer-Glo Luminescent Cell Viability Assay (Promega), a cell proliferation assay system based on detection of total amount of ATP present as a measure of cell metabolic activity. The plated cells are mixed with the Cell Titer-Glo developing reagent and counted in a luminescence multiwell plate reader according to the standard manufacturer's protocol to generate IC50 curves for cell proliferation inhibition. Results are typically reported as percent of growth (% viability =(OD72h(compound)−ODday0))/(OD72h(no compound)−ODday0). Alternatively, viable cells are quantitated by using the conventional colorimetric MTT assay. The MTT assay is based on the cleavage of the yellow tetrazolium salt MTT to purple formazan crystal by metabolic active cells. The formazan is then solubilized, and the concentration determined by optical density at 570 nm. The cells plated and incubated with a compound as described above are supplemented with the solution of MTT and incubated for 2-3 hours. The growth medium is removed and dimethyl sulfoxide is added into each well to dissolve the formazan. The absorbance is measured on an ELISA plate reader with a test wavelength of 570 nm and a background subtraction wavelength of 630 nm to obtain sample signal (OD570-OD630). […] The results are reported in terms of IC50 value for a particular compound and a cell line in the standard 3-day proliferation assay using Cell Titer-Glo. […] The results are reported in terms of IC50 value for a particular compound and a cell line in the standard 3-day proliferation assay using MTT assay.

T1 sequence (P08069 741-1367 limits assumed): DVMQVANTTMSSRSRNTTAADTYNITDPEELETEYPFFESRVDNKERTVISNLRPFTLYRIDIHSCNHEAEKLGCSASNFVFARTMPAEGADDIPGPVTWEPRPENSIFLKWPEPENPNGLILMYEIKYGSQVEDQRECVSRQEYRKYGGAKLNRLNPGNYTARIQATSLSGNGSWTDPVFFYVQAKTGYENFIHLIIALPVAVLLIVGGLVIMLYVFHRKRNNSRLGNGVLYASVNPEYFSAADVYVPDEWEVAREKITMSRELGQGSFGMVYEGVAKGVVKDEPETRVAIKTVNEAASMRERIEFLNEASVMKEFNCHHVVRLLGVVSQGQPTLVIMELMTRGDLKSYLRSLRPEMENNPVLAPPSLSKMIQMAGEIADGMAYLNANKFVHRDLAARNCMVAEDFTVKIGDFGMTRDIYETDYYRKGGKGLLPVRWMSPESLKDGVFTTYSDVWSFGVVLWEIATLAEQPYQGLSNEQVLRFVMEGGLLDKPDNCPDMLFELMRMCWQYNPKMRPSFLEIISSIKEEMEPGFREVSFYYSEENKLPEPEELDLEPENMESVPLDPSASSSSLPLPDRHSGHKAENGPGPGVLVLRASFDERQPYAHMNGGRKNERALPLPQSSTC
T1 sequence (P08069 31-736 partner limits assumed): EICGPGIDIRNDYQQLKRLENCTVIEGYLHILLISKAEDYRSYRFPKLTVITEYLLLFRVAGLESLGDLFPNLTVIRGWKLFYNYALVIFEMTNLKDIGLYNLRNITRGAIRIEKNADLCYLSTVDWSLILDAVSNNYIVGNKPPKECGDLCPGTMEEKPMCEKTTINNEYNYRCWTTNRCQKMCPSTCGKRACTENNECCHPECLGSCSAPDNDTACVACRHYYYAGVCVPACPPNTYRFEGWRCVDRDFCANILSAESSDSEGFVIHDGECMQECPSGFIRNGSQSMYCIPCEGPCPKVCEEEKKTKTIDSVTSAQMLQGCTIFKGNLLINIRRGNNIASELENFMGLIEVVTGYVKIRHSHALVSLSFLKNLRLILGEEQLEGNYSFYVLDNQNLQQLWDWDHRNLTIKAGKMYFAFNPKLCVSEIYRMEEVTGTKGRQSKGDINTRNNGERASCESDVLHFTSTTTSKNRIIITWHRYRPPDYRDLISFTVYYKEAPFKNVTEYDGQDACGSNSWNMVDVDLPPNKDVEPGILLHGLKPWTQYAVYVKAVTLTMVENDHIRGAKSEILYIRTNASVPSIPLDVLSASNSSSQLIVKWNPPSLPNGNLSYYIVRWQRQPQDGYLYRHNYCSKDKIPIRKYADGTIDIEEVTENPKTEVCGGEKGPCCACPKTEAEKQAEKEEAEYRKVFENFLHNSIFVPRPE

pIC50 [1] | pIC50 [2] | pIC50 [3] | pIC50 [4] | pIC50 [5] | pIC50 [6] | pIC50 [7] | pIC50 [8] | pIC50 [9] | SMILES
< 4.82 |  |  |  |  |  |  |  |  | O=C1c2cc3nc(-c4c(NC[C@@H](O)c5cccc(Cl)c5)cc[nH]c4=O)[nH]c3cc2C(=O)N1CCN1CCCC1 [compound 17]
 | < 4.82 | 5.30 to 6.30 | > 6.30 | 4.82 to 5.30 | < 4.82 | < 4.82 | 5.30 to 6.30 | < 4.82 | Cc1ccc(OC[C@H](O)CNc2cc[nH]c(=O)c2-c2nc3c(C)c4c(cc3[nH]2)C(=O)N(C2CCN(C)CC2)C4=O)c(C)c1Cl [compound 137]
 | < 4.82 | < 4.82 | < 4.82 | < 4.82 | < 4.82 | < 4.82 | < 4.82 | < 4.82 | COC[C@@H](C)N1C(=O)c2cc3nc(-c4c(NC[C@@H](O)c5cccc(Cl)c5)cc[nH]c4=O)[nH]c3cc2C1=O [compound 30]
 | < 4.82 | > 6.30 | 5.30 to 6.30 | 5.30 to 6.30 | < 4.82 | < 4.82 | 5.30 to 6.30 | < 4.82 | Cc1ccc(OC[C@H](O)CNc2cc[nH]c(=O)c2-c2nc3cc4c(cc3[nH]2)C(=O)N(C2CCN(CCO)CC2)C4=O)c(C)c1 [compound 123]
 | < 4.82 | > 6.30 | 5.30 to 6.30 | 5.30 to 6.30 | < 4.82 | < 4.82 | 5.30 to 6.30 | < 4.82 | O=C1c2cc3nc(-c4c(NC[C@@H](O)COc5c(F)ccc(Cl)c5F)cc[nH]c4=O)[nH]c3cc2C(=O)N1C1CCN(CCCO)CC1 [compound 136]
 | 4.82 to 5.30 | 5.30 to 6.30 | 5.30 to 6.30 | 5.30 to 6.30 | < 4.82 | < 4.82 | 5.30 to 6.30 | < 4.82 | Cc1c(Cl)cccc1OC[C@H](O)CNc1cc[nH]c(=O)c1-c1nc2cc3c(cc2[nH]1)C(=O)N(C1CCN(CCO)CC1)C3=O [compound 124]
 | < 4.82 | > 6.30 | > 6.30 | 5.30 to 6.30 | < 4.82 | < 4.82 | 5.30 to 6.30 | < 4.82 | Cc1ccc(OC[C@H](O)CNc2cc[nH]c(=O)c2-c2nc3cc4c(cc3[nH]2)C(=O)N(CCCN2CCCC2)C4=O)c2c1CCC2 [compound 114]
 | 4.82 to 5.30 | > 6.30 | > 6.30 | 5.30 to 6.30 | < 4.82 | < 4.82 | 5.30 to 6.30 | < 4.82 | Cc1ccc(OC[C@H](O)CNc2cc[nH]c(=O)c2-c2nc3cc4c(cc3[nH]2)C(=O)N(CC2CCN(CCO)CC2)C4=O)c(C)c1 [compound 118]
 | < 4.82 | > 6.30 | > 6.30 | 5.30 to 6.30 | < 4.82 | < 4.82 | 5.30 to 6.30 | 4.82 to 5.30 | O=C1c2cc3nc(-c4c(NC[C@@H](O)c5cccc(Cl)c5)cc[nH]c4=O)[nH]c3cc2C(=O)N1CCCN1CCCC1 [compound 35]
 | 4.82 to 5.30 | 5.30 to 6.30 | 4.82 to 5.30 | 5.30 to 6.30 | < 4.82 | 4.82 to 5.30 | 5.30 to 6.30 | < 4.82 | CN1CCC(N2C(=O)c3cc4nc(-c5c(NC[C@@H](O)COc6ccc7c8c6CCCN8CCC7)cc[nH]c5=O)[nH]c4cc3C2=O)CC1 [compound 86]
 | 4.82 to 5.30 | > 6.30 | > 6.30 | 4.82 to 5.30 | < 4.82 | < 4.82 | 5.30 to 6.30 | < 4.82 | Cc1c(Cl)cccc1OC[C@H](O)CNc1cc[nH]c(=O)c1-c1nc2cc3c(cc2[nH]1)C(=O)N(CC(C)(C)CN(C)C)C3=O [compound 117]
